Measurements published in patent publication US20250195530A1, “POLQ INHIBITORS” (ASTRAZENECA AB, priority 2022, published 2025).
Read-outs that look alike come from different tables or passages of the source.

Experiments:
DLD-1 BRCA2−/− cells = experiment: Homologous recombination synthetic lethal inhibition of proliferation, DLD-1 BRCA2-/- (Cell Titre Glo 3D); format: cell-based; settings: Homo sapiens, DLD-1, 288 h, 12 days
How it was run: (§1)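 Wild-type DLD-1 serves as the control for non-specific toxicity, and BRCA2-null DLD-1 as the homologous-recombination-deficient line. Both grew with compound from 10 μM down to 0.51 nM, re-dosed after 6 days. Luminescent ATP content (CellTiter-Glo 3D) was read after 7 or 12 days, respectively, to give IC50 values.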

DLD-1 cells = experiment: Inhibition of proliferation, DLD-1 BRCA2 wt control (Cell Titre Glo 3D); format: cell-based; settings: Homo sapiens, DLD-1, 168 h, 7 days
How it was run: as §1

[1] = DLD-1 BRCA2−/−, Cell Titre Glo 3D, read-out: POLQ PD Prolif Lumin BRCA2 −/− Mean pIC50 (converted)
[2] = DLD-1 (BRCA2 wt control), Cell Titre Glo 3D, read-out: POLQ PD Prolif Lumin DLD1 Mean pIC50 (converted)
[3] = DLD-1 BRCA2−/− cells, read-out: POLQ PD Prolif Lumin BRCA2 −/− mean pIC50 (converted)
[4] = DLD-1 BRCA2 wt cells, read-out: POLQ PD Prolif Lumin DLD1 mean pIC50 (converted)

| IC50 (DLD-1 cells; [2]) [nM] | IC50 (DLD-1 cells; [4]) [nM] | SMILES | IC50 (DLD-1 BRCA2−/− cells; [1]) [nM] | IC50 (DLD-1 BRCA2−/− cells; [3]) [nM] |
| --- | --- | --- | --- | --- |
| > 10000 | – | COc1ccc(Cl)cc1Cn1c(-c2ccc(OCC[C@H](C)C(=O)O)cc2Cl)nc2c(OC3(C)CC3)ncnc21 [Example 48, (S)-4-(3-chloro-4-(9-(5-chloro-2-methoxybenzyl)-6-(1-methylcyclopropoxy)-9H-purin-8-yl)phenoxy)-2-methylbutanoic acid] | 39.8 | – |
| > 10000 | – | COc1ccc(Cl)cc1Cn1c(-c2cccc(OCCC(=O)O)c2Cl)nc2c(OC3(C)CC3)ncnc21 [Example 49, 3-(2-Chloro-3-(9-(5-chloro-2-methoxybenzyl)-6-(1-methylcyclopropoxy)-9H-purin-8-yl)phenoxy)propanoic acid] | 15.8 | – |
| > 10000 | – | COc1ccc(Cl)cc1Cn1c(-c2cccc(O[C@H]3C[C@@H](C(=O)O)C3)c2Cl)nc2c(OC3(C)CC3)ncnc21 [Example 52, (1s,3s)-3-(2-chloro-3-(9-(5-chloro-2-methoxybenzyl)-6-(1-methylcyclopropoxy)-9H-purin-8-yl)phenoxy)cyclobutane-1-carboxylic acid] | 12.6 | – |
| – | 5010 | CC(=O)NCCCOc1ccc(-c2nc3cc(OC(C)C)ccc3n2Cc2ccccc2)c(Cl)c1 [Example A3, N-(3-(4-(1-benzyl-5-isopropoxy-1H-benzo[d]imidazol-2-yl)-3-chlorophenoxy)propyl)acetamide] | – | 501 |
| – | 1580 | Cc1cc(OCCN2CCN(C)CC2)ncc1-c1nc2cc(OC(C)C)ccc2n1Cc1cccc(Cl)c1 [Example A7, 1-(3-chlorobenzyl)-5-isopropoxy-2-(4-methyl-6-(2-(4-methylpiperazin-1-yl)ethoxy)pyridin-3-yl)-1H-benzo[d]imidazole] | – | 251 |
| – | > 10000 | COc1ccc(-c2nc3cc(OC(C)C)ccc3n2Cc2ccccc2)c(Cl)c1 [Example A12, 1-benzyl-2-(2-chloro-4-methoxyphenyl)-5-isopropoxy-1H-benzo[d]imidazole] | – | 2000 |
| – | 7940 | CC(C)Oc1ncnc2c1nc(-c1ccc(OCCN3CCN(C)CC3)cc1)n2Cc1ccccc1 [Example B1, 9-benzyl-6-isopropoxy-8-(4-(2-(4-methyl-piperazin-1-yl)ethoxy)phenyl)-9H-purine] | – | 1000 |
| – | 6310 | Cc1cc(OCCN2CCNCC2)ccc1-c1nc2c(OC(C)C)ncnc2n1Cc1ccccc1 [Example B2, 9-benzyl-6-isopropoxy-8-(2-methyl-4-(2-(piperazin-1-yl)ethoxy)phenyl)-9H-purine] | – | 501 |
| – | > 10000 | CC(=O)N1CCN(CCOc2ccc(-c3nc4c(OC(C)C)ncnc4n3Cc3ccccc3)c(C)c2)CC1 [Example B4, 1-(4-(2-(4-(9-benzyl-6-isopropoxy-9H-purin-8-yl)-3-methyl-phenoxy)ethyl)piperazin-1-yl)ethan-1-one] | – | 794 |
| – | 5010 | Cc1cc(OCCN2CCN(C)CC2)ccc1-c1nc2c(OC3(C)CC3)ncnc2n1Cc1ccccc1 [Example C1, 9-benzyl-8-(2-methyl-4-(2-(4-methylpiperazin-1-yl)ethoxy)phenyl)-6-(1-methylcyclopropoxy)-9H-purine] | – | 100 |
| – | > 10000 | CC(=O)N1CCN(c2cc(C)c(-c3nc4c(OC5(C)CC5)ncnc4n3Cc3ccccc3)cn2)CC1 [Example C2, 1-(4-(5-(9-benzyl-6-(1-methylcyclopropoxy)-9H-purin-8-yl)-4-methylpyridin-2-yl)piperazin-1-yl)ethan-1-one] | – | 316 |
| – | 7940 | Cc1cc(OCCN2CCN(C)CC2)ncc1-c1nc2c(OC3(C)CC3)ncnc2n1Cc1ccccc1 [Example C3, 9-benzyl-8-(4-methyl-6-(2-(4-methylpiperazin-1-yl)ethoxy)pyridin-3-yl)-6-(1-methylcyclopropoxy)-9H-purine] | – | 316 |
| – | 2510 | CN(C)[C@@H]1CCN(c2ccc(-c3nc4c(OC5(C)CC5)ncnc4n3Cc3ccccc3)c(Cl)c2)C1 [Example C4, (R)-1-(4-(9-benzyl-6-(1-methylcyclopropoxy)-9H-purin-8-yl)-3-chlorophenyl)-N,N-dimethylpyrrolidin-3-amine] | – | 200 |
| – | > 10000 | Cc1cc(N2CCNCC2)ncc1-c1nc2c(OC3(C)CC3)ncnc2n1Cc1ccccc1 [Example C5, 9-benzyl-8-(4-methyl-6-(piperazin-1-yl)pyridin-3-yl)-6-(1-methylcyclopropoxy)-9H-purine] | – | 316 |
| – | > 10000 | COc1cccc(-c2nc3c(OC4(C)CC4)ncnc3n2Cc2ccccc2)c1Cl [Example C6, 9-benzyl-8-(2-chloro-3-methoxyphenyl)-6-(1-methylcyclopropoxy)-9H-purine] | – | 79.4 |
| – | 6310 | CC1(Oc2ncnc3c2nc(-c2ccc(N4CCNCC4)cc2Cl)n3Cc2ccccc2)CC1 [Example C7, 9-benzyl-8-(2-chloro-4-(piperazin-1-yl)phenyl)-6-(1-methylcyclopropoxy)-9H-purine] | – | 251 |
| – | 6310 | CC1(Oc2ncnc3c2nc(-c2ccc(OCC(=O)N4CCNCC4)cc2Cl)n3Cc2ccccc2)CC1 [Example C8, 2-(4-(9-benzyl-6-(1-methylcyclopropoxy)-9H-purin-8-yl)-3-chloro-phenoxy)-1-(piperazin-1-yl)ethan-1-one] | – | 316 |
| – | 6310 | CC(=O)N1CCC(COc2ccc(-c3nc4c(OC5(C)CC5)ncnc4n3Cc3ccccc3)c(Cl)c2)CC1 [Example D1, 1-(4-((4-(9-benzyl-6-(1-methylcyclopropoxy)-9H-purin-8-yl)-3-chlorophenoxy)methyl)piperidin-1-yl)ethan-1-one] | – | 79.4 |
| – | 2510 | CC(=O)N1CCN(CCOc2ccc(-c3nc4c(OC5(C)CC5)ncnc4n3Cc3ccccc3)c(Cl)c2)CC1 [Example D5, 1-(4-(2-(4-(9-benzyl-6-(1-methylcyclopropoxy)-9H-purin-8-yl)-3-chlorophenoxy)ethyl)piperazin-1-yl)ethan-1-one] | – | 63.1 |
| – | 5010 | CC1(Oc2ncnc3c2nc(-c2ccc(OCCCN)cc2Cl)n3Cc2ccccc2)CC1 [Example D6, 3-(4-(9-benzyl-6-(1-methylcyclopropoxy)-9H-purin-8-yl)-3-chlorophenoxy)propan-1-amine] | – | 631 |
| – | 6310 | CC(=O)NCCCOc1ccc(-c2nc3c(OC4(C)CC4)ncnc3n2Cc2ccccc2)c(Cl)c1 [Example D7, N-(3-(4-(9-benzyl-6-(1-methylcyclopropoxy)-9H-purin-8-yl)-3-chlorophenoxy)propyl)acetamide] | – | 126 |
| – | 6310 | CC(=O)N1CCN(CCOc2cccc(-c3nc4c(OC5(C)CC5)ncnc4n3Cc3ccccc3)c2Cl)CC1 [Example D8, 1-(4-(2-(3-(9-benzyl-6-(1-methylcyclopropoxy)-9H-purin-8-yl)-2-chlorophenoxy)ethyl)piperazin-1-yl)ethan-1-one] | – | 50.1 |
| – | 2000 | CN1CCC(Oc2cccc(-c3nc4c(OC5(C)CC5)ncnc4n3Cc3ccccc3)c2Cl)CC1 [Example D9, 9-benzyl-8-(2-chloro-3-((1-methylpiperidin-4-yl)oxy)phenyl)-6-(1-methylcyclopropoxy)-9H-purine] | – | 158 |
| – | 5010 | CC1(Oc2ncnc3c2nc(-c2cccc(OCCN4CCNCC4)c2Cl)n3Cc2ccccc2)CC1 [Example D10, 9-benzyl-8-(2-chloro-3-(2-(piperazin-1-yl)ethoxy)phenyl)-6-(1-methylcyclopropoxy)-9H-purine] | – | 126 |
| – | 3160 | CC1(Oc2ncnc3c2nc(-c2cccc(OC4CCNCC4)c2Cl)n3Cc2ccccc2)CC1 [Example D11, 9-benzyl-8-(2-chloro-3-(piperidin-4-yloxy)phenyl)-6-(1-methylcyclopropoxy)-9H-purine] | – | 251 |
| – | 5010 | CN1CCN(CCOc2cccc(-c3nc4c(OC5(C)CC5)ncnc4n3Cc3ccccc3)c2Cl)CC1 [Example D12, 9-benzyl-8-(2-chloro-3-(2-(4-methylpiperazin-1-yl)ethoxy)phenyl)-6-(1-methylcyclopropoxy)-9H-purine] | – | 50.1 |
| – | > 10000 | CC1(Oc2ncnc3c2nc(-c2ccc(OCCN4CCNC(=O)C4)cc2Cl)n3Cc2ccccc2)CC1 [Example D15, 4-(2-(4-(9-benzyl-6-(1-methylcyclopropoxy)-9H-purin-8-yl)-3-chlorophenoxy)ethyl)piperazin-2-one] | – | 79.4 |
| – | 3980 | CC1(Oc2ncnc3c2nc(-c2ccc(OC[C@H]4CCN4)cc2Cl)n3Cc2ccccc2)CC1 [Example D16, (R)-8-(4-(azetidin-2-ylmethoxy)-2-chlorophenyl)-9-benzyl-6-(1-methylcyclopropoxy)-9H-purine] | – | 158 |
| – | 3160 | CC1(Oc2ncnc3c2nc(-c2ccc(O[C@H]4CCNC4)cc2Cl)n3Cc2ccccc2)CC1 [Example D17, (S)-9-benzyl-8-(2-chloro-4-(pyrrolidin-3-yloxy)phenyl)-6-(1-methylcyclopropoxy)-9H-purine] | – | 100 |

| SMILES | IC50 (DLD-1 cells; [2]) [nM] | IC50 (DLD-1 cells; [4]) [nM] | IC50 (DLD-1 BRCA2−/− cells; [1]) [nM] | IC50 (DLD-1 BRCA2−/− cells; [3]) [nM] |
| --- | --- | --- | --- | --- |
| CN1CCN(C(=O)COc2ccc(-c3nc4c(OC5(C)CC5)ncnc4n3Cc3ccccc3)c(Cl)c2)CC1 [Example C9, 2-(4-(9-benzyl-6-(1-methylcyclopropoxy)-9H-purin-8-yl)-3-chloro-phenoxy)-1-(4-methyl-piperazin-1-yl)ethan-1-one] | – | > 10000 | – | 126 |
